Laboratory results published in PMC9491098, “Discovery of novel drug-like antitubercular hits targeting the MEP pathway enzyme DXPS by strategic application of ligand-based virtual screening” (Chemical Science, 2022).
Read-outs that look alike come from different tables or passages of the source.

What was measured:
MtDXPS [1] = molecular target: T1, MtDXPS (Mycobacterium tuberculosis, UniProt P9WNS3); assay: biochemical; details: for Ki: MtDXPS
MtDXPS [2] = molecular target: T1, MtDXPS; assay: biochemical
DrDXPS (WT) = DrDXPS (WT) (Deinococcus radiodurans, UniProt Q9RUB5); details: pseudo-inhibitors; cited from earlier work
DrDXPS (WT), sequence (Q9RUB5 whole entry, looked up): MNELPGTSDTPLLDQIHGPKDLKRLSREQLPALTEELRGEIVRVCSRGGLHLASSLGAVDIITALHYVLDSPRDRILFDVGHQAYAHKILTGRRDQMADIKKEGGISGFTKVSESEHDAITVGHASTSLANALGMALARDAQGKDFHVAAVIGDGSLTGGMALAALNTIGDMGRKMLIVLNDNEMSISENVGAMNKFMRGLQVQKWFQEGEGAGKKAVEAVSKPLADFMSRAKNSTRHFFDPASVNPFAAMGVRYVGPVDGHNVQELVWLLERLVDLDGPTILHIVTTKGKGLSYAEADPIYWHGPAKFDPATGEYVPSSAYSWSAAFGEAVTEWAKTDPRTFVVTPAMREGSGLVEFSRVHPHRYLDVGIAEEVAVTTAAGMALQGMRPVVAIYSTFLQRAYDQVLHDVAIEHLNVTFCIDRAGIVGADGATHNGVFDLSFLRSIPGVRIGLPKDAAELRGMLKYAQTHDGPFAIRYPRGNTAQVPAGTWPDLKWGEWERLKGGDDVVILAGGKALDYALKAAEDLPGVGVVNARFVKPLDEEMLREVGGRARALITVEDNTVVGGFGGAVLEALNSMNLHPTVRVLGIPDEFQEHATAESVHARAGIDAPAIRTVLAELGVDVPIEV

[3] = Table 1A, indole derivatives, read-out: K i*
[4] = Table S1, first round of LBVS, MtDXPS, read-out: IC50
[5] = Table 1C, aminothiazole derivatives, read-out: K i*
[6] = Table S2, second round of LBVS, MtDXPS, read-out: IC50
[7] = Table S3, third round of LBVS, MtDXPS, read-out: IC50
[8] = Table 1B, oxime derivatives, read-out: K i*

T1 sequence (P9WNS3 whole entry, looked up): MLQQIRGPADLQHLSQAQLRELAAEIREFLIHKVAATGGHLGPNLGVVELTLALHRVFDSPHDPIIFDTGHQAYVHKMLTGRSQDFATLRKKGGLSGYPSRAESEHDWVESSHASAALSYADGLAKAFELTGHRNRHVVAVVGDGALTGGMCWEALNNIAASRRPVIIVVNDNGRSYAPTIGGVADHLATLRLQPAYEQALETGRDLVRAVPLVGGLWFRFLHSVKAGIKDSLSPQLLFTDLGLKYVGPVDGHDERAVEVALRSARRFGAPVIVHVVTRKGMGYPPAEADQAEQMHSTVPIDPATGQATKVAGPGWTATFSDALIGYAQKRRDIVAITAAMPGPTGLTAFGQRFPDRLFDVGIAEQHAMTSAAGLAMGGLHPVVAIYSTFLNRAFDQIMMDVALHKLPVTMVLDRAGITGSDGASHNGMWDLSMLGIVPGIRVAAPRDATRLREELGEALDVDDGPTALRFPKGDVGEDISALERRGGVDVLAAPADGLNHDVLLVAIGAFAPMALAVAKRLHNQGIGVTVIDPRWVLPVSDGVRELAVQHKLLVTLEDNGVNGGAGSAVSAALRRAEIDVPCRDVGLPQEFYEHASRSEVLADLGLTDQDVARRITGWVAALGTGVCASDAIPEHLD

COCc1cn(Cc2ccc(Cl)c(Cl)c2)c2ccccc12 [Compound 14]
Ki (MtDXPS [1]; [3]): > 5 µM

CC(C)(CO)NCc1cccs1 [Compound 64]
IC50 (MtDXPS [2]; [4]): > 1000 µM

Cc1ccc(-n2c(S)nnc2CCn2nc(C)cc2C)cc1 [Compound 73]
IC50 (MtDXPS [2]; [4]): > 500 µM

CCCSc1nnc(-c2ccccc2NC(C)=O)c(O)n1 [Compound 89]
IC50 (MtDXPS [2]; [4]): > 120 µM

Oc1ncnc(O)c1C(c1cccs1)c1c(O)ncnc1O [Compound 43]
IC50 (MtDXPS [2]; [4]): > 500 µM

Cc1nc(N)sc1-c1csc(Nc2ccccc2C(F)(F)F)n1 [Compound 27]
Ki (MtDXPS [1]; [5]): 0.3 ± 0.02 µM

COc1ccc2[nH]cc(C3NC(N)=Nc4nc5ccccc5n43)c2c1 (stereo not shown) [Compound 46]
IC50 (MtDXPS [2]; [4]): > 500 µM

CCCCNC(=O)N(C)Cc1c(C)nn(CC)c1C [Compound 69]
IC50 (MtDXPS [2]; [4]): > 1000 µM

Cc1nc(-c2ccccc2)nc(Nc2ccccc2)c1Cc1ccccc1 [Compound 45]
IC50 (MtDXPS [2]; [4]): > 15 µM

CCCOc1ccc(C2N=C(N)Nc3nc4ccccc4n32)cc1 (stereo not shown) [Compound 122]
IC50 (MtDXPS [2]; [6]): > 50 µM

Cc1nc(N)sc1-c1csc(Nc2ccccc2)n1 [Compound 26]
Ki (MtDXPS [1]; [5]): > 10 µM | IC50 (MtDXPS [2]; [7]): > 120 µM

Cc1cc(C)n(CCc2nnco2)n1 [Compound 74]
IC50 (MtDXPS [2]; [4]): > 1000 µM

CC(C)c1ccc(C(C)N2Cc3nc(N)ncc3C2=O)cc1 (stereo not shown) [Compound 4]
IC50 (MtDXPS [2]; IC50 against MtDXPS): 1020 ± 88 µM

CCn1c(S)nnc1-c1csc2c1CCCC2 [Compound 40]
IC50 (MtDXPS [2]; [4]): > 240 µM

CN1NC(c2ccc(O)cc2)C2C(=O)NC(=O)C21 (stereo not shown) [Compound 85]
IC50 (MtDXPS [2]; [4]): > 120 µM

Cc1ccc(C(=O)Nc2ccc(O)cc2C(=O)O)cc1 [Compound 86]
IC50 (MtDXPS [2]; [4]): > 120 µM

O=C(O)Cc1ccc(-n2cnnn2)cc1 [Compound 53]
inhibition at 1000 μM (MtDXPS [2]): ~ 25 % inhibition

Cc1sc(-n2c(C)cc(/C=N/O)c2C)c(C(=O)O)c1C [Compound 118]
IC50 (MtDXPS [2]; [6]): > 800 µM

Cc1nc(NC(=O)c2ccccc2)sc1-c1csc(Nc2ccc(C(F)(F)F)cc2)n1 [Compound 133]
IC50 (MtDXPS [2]; [7]): > 120 µM

O=Cc1ccc(O[C@@H]2O[C@H](CO)[C@@H](O)[C@H](O)[C@H]2O)cc1 [Compound 82]
IC50 (MtDXPS [2]): > 1000 µM

COc1ccc(Cn2ccnc2)cc1N [Compound 70]
IC50 (MtDXPS [2]; [4]): > 1000 µM

COc1ccc(/C(Cc2ccc(Cl)cc2)=N/O)c(O)c1 [Compound 24]
Ki (MtDXPS [1]; [8]): 0.5 ± 0.1 µM

Cc1cc(C)n(CCc2nnc(S)n2-c2ccc(Br)cc2)n1 [Compound 72]
IC50 (MtDXPS [2]; [4]): > 120 µM

COc1ccc(OC)c(C2CC(=O)NC3=C2C(=O)CCC3)c1 (stereo not shown) [Compound 63]
IC50 (MtDXPS [2]; [4]): > 500 µM

COc1cc(Cl)c(/C=C2\SC(=S)N(CC(=O)O)C2=O)c(OC)c1 [Compound 50]
IC50 (MtDXPS [2]): > 240 µM

N#Cc1ccc2c(CO)cn(Cc3ccc(Cl)c(Cl)c3)c2c1 [Compound 18]
Ki (MtDXPS [1]; [3]): 1.7 ± 0.3 µM

COc1cccc2c(CO)cn(Cc3ccc(Cl)c(Cl)c3)c12 [Compound 19]
Ki (MtDXPS [1]; [3]): 1.4 ± 0.3 µM

OCCc1nc2ccccc2n1Cc1ccc(Cl)cc1 [Compound 101]
IC50 (MtDXPS [2]; [6]): > 440 µM

O=C1N/C(=C/c2ccc(O)c(I)c2)C(=O)N1c1ccc(Cl)cc1 [Compound 60]
IC50 (MtDXPS [2]; [4]): > 120 µM

S=c1[nH]ccn1Cc1ccccc1 [Compound 54]
IC50 (MtDXPS [2]; [4]): > 500 µM

COc1ccc(Cc2nc3ccccc3n2CC(O)CO)cc1 (stereo not shown) [Compound 105]
IC50 (MtDXPS [2]; [6]): > 2000 µM

COc1ccc(C/C(=N\O)c2ccc(O)cc2O)cc1 [Compound 22]
Ki (MtDXPS [1]; [8]): > 10 µM

O=Cc1cn(Cc2ccc(Cl)c(Cl)c2)c2ccccc12 [Compound 13]
Ki (MtDXPS [1]; K i* (μM), Table 1A, indole derivatives): > 10 µM

CCCCC(C(=O)O)C(C)CC(=O)Nc1nncs1 (stereo not shown) [Compound 80]
IC50 (MtDXPS [2]; [4]): > 1000 µM

CN1C(=O)CCC(C(=O)O)C1c1ccccc1 (stereo not shown) [Compound 68]
IC50 (MtDXPS [2]; [4]): > 1000 µM

FC(F)(F)c1ccc(Nc2nc(-c3ccncc3)cs2)cc1 [Compound 132]
IC50 (MtDXPS [2]; [7]): > 60 µM

Oc1ccc(-c2csc(Nc3cccc(C(F)(F)F)c3)n2)c(O)c1 [Compound 29]
Ki (MtDXPS [1]; [5]): 0.5 ± 0.04 µM

CN(C)Cc1ccc(O)cc1 [Compound 58]
IC50 (MtDXPS [2]; [4]): > 1000 µM

Cc1c(/N=C2\C(=O)N(CC(=O)O)c3ccccc32)c(=O)n(-c2ccccc2)n1C [Compound 84]
IC50 (MtDXPS [2]; [4]): > 120 µM

O=c1c2ncccc2nc(O)n1Cc1cccnc1 [Compound 65]
IC50 (MtDXPS [2]; [4]): > 240 µM

OCCc1nc2ccccc2n1Cc1ccc(F)cc1 [Compound 102]
IC50 (MtDXPS [2]; [6]): > 540 µM

Cc1ccc(-c2csc(Nc3cccc(Cl)c3C)n2)cc1 [Compound 134]
IC50 (MtDXPS [2]; [7]): > 16 µM

N/N=C(\Cc1ccc(Cl)cc1)c1ccc(O)cc1O [Compound 21]
inhibitory activity against MtDXPS, SAR statement (MtDXPS [1]; SAR discussion of Table 1A–C): activity is partially retained | Ki (MtDXPS [1]; [8]): 0.4 ± 0.05 µM

CC(C)(C)c1ccc(Cn2c(CCCO)nc3ccccc32)cc1 [Compound 103]
IC50 (MtDXPS [2]; [6]): > 90 µM

COc1cncc(Cn2ccnc2)c1 [Compound 1, reference compound]
inhibition of DrDXPS (DrDXPS (WT)): weak inhibitors | IC50 (MtDXPS [2]): > 2000 µM

C=CCN1C(=O)N/C(=C/c2ccc(O)c(OCC)c2)C1=O [Compound 59]
IC50 (MtDXPS [2]; [4]): > 30 µM

NC(Cc1ccc(O)cc1)c1nc2ccccc2[nH]1 (stereo not shown) [Compound 75]
IC50 (MtDXPS [2]): > 1000 µM

CC(C)Cc1nc2ccccc2n1Cc1ccc(Cl)cc1 [Compound 104]
IC50 (MtDXPS [2]; [6]): > 63 µM

N=C1NC(=O)C(CC(N)=O)S1 (stereo not shown) [Compound 57]
IC50 (MtDXPS [2]; [4]): > 1000 µM
